Among the test systems are ACHN renal; DU-145 prostate; EKVX NSCLC; M14 melanoma; MOLT-4 leukemia; NCI-H23 lung; NCI/ADR-RES ovarian; OVCAR-8 ovarian; SF-539 CNS; SK-MEL-2 melanoma; SK-OV-3 ovarian; SN12C renal; SNB-75 CNS; SR leukemia; SW-620 colon; UACC-257 melanoma.
Holding throughout (test): NCI tumour cell line growth inhibition, 48 h

In PubChem BioAssay (NCI) one finds TGI and GI50 data, which are given here for 14 compounds.

“And” between values parts separate entries of the source, which are not always exact repeats. Identical values can stand only once.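 Results reflect a 48-hour exposure of cells in 96-well plates to compound at five concentrations. Here, GI50 denotes the concentration required for 50% inhibition of growth. TGI is the concentration that stops growth completely.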

For `Cc1ccc(NC=O)c(-c2c(N)[nH]c(=S)[nH]c2=O)c1`, the TGI with ACHN renal, in the assay on DU-145 prostate, in the assay on EKVX NSCLC, in the assay with M14 melanoma, in the assay with MOLT-4 leukemia and in the assay with NCI-H23 lung was over 100 µM in each case. The TGI was over 100 µM in the assay with NCI/ADR-RES ovarian; over 100 µM in the assay with OVCAR-8 ovarian; over 100 µM with SF-539 CNS; over 100 µM with SK-MEL-2 melanoma; 91.7 µM with SK-OV-3 ovarian; over 100 µM in the assay with SN12C renal. The TGI in the assay with SNB-75 CNS, in the assay with SR leukemia, in the assay with SW-620 colon and in the assay on UACC-257 melanoma was over 100 µM throughout.

Turning to `CC(C)(C)OC(=O)N(CCCCNC(=O)OCc1ccccc1)CCCNC(=O)OCc1ccccc1`, the TGI is 22.6 µM with ACHN renal; over 100 µM in the assay on DU-145 prostate; over 100 µM in the assay on EKVX NSCLC; over 100 µM in the assay with M14 melanoma; 30 µM in the assay on MOLT-4 leukemia; over 100 µM in the assay on NCI-H23 lung. Further, the TGI with NCI/ADR-RES ovarian, in the assay with OVCAR-8 ovarian, with SF-539 CNS, in the assay with SK-MEL-2 melanoma, in the assay on SK-OV-3 ovarian and in the assay with SN12C renal was over 100 µM each time. The TGI in the assay on SNB-75 CNS, with SR leukemia, in the assay on SW-620 colon and in the assay with UACC-257 melanoma was over 100 µM throughout.

`O=S(=O)(Nc1nc2ccccc2nc1Nc1ccc2ccccc2c1)c1ccccc1`: the TGI was over 100 µM with ACHN renal; over 100 µM with DU-145 prostate; over 100 µM in the assay on EKVX NSCLC; over 57.2 µM in the assay with M14 melanoma; 65.1 µM in the assay on MOLT-4 leukemia; 41.3 µM with NCI-H23 lung. The TGI in the assay with NCI/ADR-RES ovarian is over 100 µM; with OVCAR-8 ovarian, over 100 µM; with SF-539 CNS, 45.8 µM; in the assay with SK-MEL-2 melanoma, 14 µM; in the assay on SK-OV-3 ovarian, over 100 µM; with SN12C renal, over 68.9 µM. In addition, the TGI with SNB-75 CNS was over 73.6 µM; in the assay with SR leukemia, over 87.4 µM; in the assay with SW-620 colon it was over 100 µM; in the assay on UACC-257 melanoma, over 100 µM.

As to `O=C(/C=C/c1ccccc1)CSc1ncn[nH]1`, the TGI with ACHN renal, in the assay on DU-145 prostate, in the assay on EKVX NSCLC, with M14 melanoma, in the assay with MOLT-4 leukemia and in the assay with NCI-H23 lung was over 100 µM each time. Moreover, the TGI with NCI/ADR-RES ovarian, in the assay on OVCAR-8 ovarian, in the assay with SF-539 CNS, with SK-MEL-2 melanoma, with SK-OV-3 ovarian and in the assay with SN12C renal was over 100 µM in each case. In addition, the TGI in the assay with SNB-75 CNS, in the assay on SR leukemia, in the assay with SW-620 colon and with UACC-257 melanoma was over 100 µM each time.

Turning to `C=C(C(=O)O)[C@@H]1C[C@@H]2O[C@H]1[C@@H](O)[C@@H](C)CCCC(C)=CCC[C@@]2(C)O`, the TGI in the assay with ACHN renal, in the assay on DU-145 prostate, in the assay with EKVX NSCLC, in the assay with M14 melanoma, in the assay on MOLT-4 leukemia and in the assay with NCI-H23 lung was over 100 µM in each case. For the same compound, the TGI with NCI/ADR-RES ovarian, in the assay with OVCAR-8 ovarian, with SF-539 CNS, in the assay with SK-MEL-2 melanoma, in the assay with SK-OV-3 ovarian and in the assay on SN12C renal was over 100 µM each time. Also, the TGI in the assay on SNB-75 CNS is over 100 µM; in the assay on SR leukemia, over 95 µM; in the assay on SW-620 colon, over 100 µM; in the assay on UACC-257 melanoma, over 100 µM. Also, the GI50 in the assay with MOLT-4 leukemia was 27.2 µM and 56.9 µM.

Take `Nc1nc(Cl)c(N)c(NCC2(CO)CC2)n1`: the TGI in the assay with ACHN renal, in the assay on DU-145 prostate, in the assay on EKVX NSCLC, with M14 melanoma, in the assay with MOLT-4 leukemia and in the assay with NCI-H23 lung was over 100 µM in each case. The TGI in the assay with NCI/ADR-RES ovarian, in the assay on OVCAR-8 ovarian, with SF-539 CNS, in the assay with SK-MEL-2 melanoma, in the assay with SK-OV-3 ovarian and in the assay on SN12C renal was over 100 µM in each case. For the same compound, the TGI in the assay on SNB-75 CNS, in the assay on SR leukemia, with SW-620 colon and with UACC-257 melanoma was over 100 µM in each case.

In the case of `CC(C)CCC[C@@H](C)[C@H]1CC[C@H]2[C@@H]3CC[C@H]4C[C@@H](CCC=C(c5cc(Cl)c(O)c(C(=O)O)c5)c5cc(Cl)c(O)c(C(=O)O)c5)CC[C@]4(C)[C@H]3CC[C@]12C`, the TGI with ACHN renal, in the assay with DU-145 prostate, with EKVX NSCLC, with M14 melanoma, in the assay on MOLT-4 leukemia and in the assay on NCI-H23 lung was over 100 µM throughout. Further, the TGI in the assay on NCI/ADR-RES ovarian, in the assay with OVCAR-8 ovarian, in the assay with SF-539 CNS, in the assay on SK-MEL-2 melanoma, in the assay with SK-OV-3 ovarian and in the assay with SN12C renal was over 100 µM in each case. In addition, the TGI with SNB-75 CNS, with SR leukemia, in the assay on SW-620 colon and in the assay with UACC-257 melanoma was over 100 µM throughout.

For `CCOC(=O)c1c(N=P(c2ccccc2)(c2ccccc2)c2ccccc2)nnc(-c2ccccc2)c1-c1ccccc1`, the TGI with ACHN renal, in the assay on DU-145 prostate, with EKVX NSCLC, in the assay on M14 melanoma, in the assay with MOLT-4 leukemia and in the assay with NCI-H23 lung was over 100 µM throughout. Moreover, the TGI with NCI/ADR-RES ovarian, in the assay on OVCAR-8 ovarian, with SF-539 CNS, in the assay with SK-MEL-2 melanoma, with SK-OV-3 ovarian and with SN12C renal was over 100 µM in each case. The TGI with SNB-75 CNS, in the assay on SR leukemia, in the assay on SW-620 colon and in the assay with UACC-257 melanoma was over 100 µM throughout.

As for `NC(=O)N/N=C(/CC1C(=O)Oc2ccccc21)c1ccccc1O` (stereo not given), the TGI in the assay with ACHN renal was over 100 µM; with DU-145 prostate, over 100 µM; in the assay with EKVX NSCLC, over 100 µM; in the assay with M14 melanoma, over 100 µM; with MOLT-4 leukemia it was 50.9 µM; in the assay on NCI-H23 lung, over 100 µM. The TGI in the assay on NCI/ADR-RES ovarian was 98.2 µM; in the assay on OVCAR-8 ovarian, over 100 µM; in the assay on SF-539 CNS, 91.1 µM; in the assay with SK-MEL-2 melanoma it was over 100 µM; in the assay with SK-OV-3 ovarian it was over 100 µM; in the assay with SN12C renal it was over 100 µM. Moreover, the TGI was over 100 µM in the assay with SNB-75 CNS, 40.8 µM with SR leukemia, over 100 µM in the assay with SW-620 colon and over 100 µM in the assay with UACC-257 melanoma.

As to `Cc1ccccc1OC(C)C(=O)NN1C(=O)CSC1c1ccc(Cl)cc1` (stereo not given), the TGI was over 68.9 µM in the assay on ACHN renal; over 100 µM with DU-145 prostate; over 100 µM in the assay with EKVX NSCLC; over 100 µM in the assay on M14 melanoma; over 59.7 µM in the assay on MOLT-4 leukemia; over 100 µM in the assay with NCI-H23 lung. Besides, the TGI is over 100 µM with NCI/ADR-RES ovarian; over 100 µM in the assay with OVCAR-8 ovarian; over 63.1 µM in the assay with SF-539 CNS; over 100 µM with SK-MEL-2 melanoma; over 92.5 µM with SK-OV-3 ovarian; 35.3 µM in the assay with SN12C renal. The TGI in the assay on SNB-75 CNS is over 100 µM; with SR leukemia, over 46.3 µM; with SW-620 colon it was over 81.2 µM; in the assay with UACC-257 melanoma, over 100 µM.

As for `CC(C)(C)OC(=O)NC1CC2(C=C(Br)C(=O)C(Br)=C2)OC1=O` (stereo not given), the TGI with ACHN renal came to 10.8 µM; with DU-145 prostate it was 26.4 µM; with EKVX NSCLC, 27.5 µM; in the assay on M14 melanoma, 20.2 µM; in the assay with MOLT-4 leukemia, 2.59 µM; in the assay with NCI-H23 lung, 22 µM. The TGI with NCI/ADR-RES ovarian is 34.8 µM; in the assay with OVCAR-8 ovarian, 21.4 µM; in the assay with SF-539 CNS, 42.5 µM; with SK-MEL-2 melanoma, 32 µM; in the assay with SK-OV-3 ovarian, 32.1 µM; in the assay on SN12C renal, 18.5 µM. The TGI in the assay on SNB-75 CNS amounted to 36.7 µM; in the assay on SR leukemia it was 4.18 µM; in the assay on SW-620 colon, 5.79 µM; in the assay with UACC-257 melanoma, 13 µM.

Take `CSc1ccc(-c2cc(-c3nc4ccccc4[nH]3)no2)cc1`: the TGI in the assay on ACHN renal is over 100 µM; with DU-145 prostate it was over 100 µM; with EKVX NSCLC it was over 100 µM; in the assay with M14 melanoma it was 56.2 µM; in the assay with MOLT-4 leukemia, 37.2 µM; in the assay with NCI-H23 lung it was 66 µM. The TGI is 64.1 µM in the assay with NCI/ADR-RES ovarian; over 100 µM in the assay with OVCAR-8 ovarian; over 100 µM in the assay with SF-539 CNS; 49.4 µM in the assay on SK-MEL-2 melanoma; over 100 µM in the assay on SK-OV-3 ovarian; over 100 µM with SN12C renal. Besides, the TGI is over 100 µM with SNB-75 CNS, over 100 µM in the assay with SR leukemia, over 100 µM with SW-620 colon and 85.9 µM in the assay on UACC-257 melanoma.

`O=C(O)CCS/C(=C\C(SCCC(=O)O)c1ccc(Cl)cc1)c1ccc(Cl)cc1` (stereo not given): the TGI in the assay with ACHN renal, in the assay with DU-145 prostate, in the assay on EKVX NSCLC, in the assay with M14 melanoma, in the assay with MOLT-4 leukemia and in the assay with NCI-H23 lung was over 100 µM each time. The TGI with NCI/ADR-RES ovarian was over 100 µM; in the assay on OVCAR-8 ovarian it was over 100 µM; in the assay on SF-539 CNS, over 100 µM; in the assay on SK-MEL-2 melanoma it was 74.4 µM; in the assay on SK-OV-3 ovarian, over 100 µM; with SN12C renal, over 100 µM. Besides, the TGI in the assay on SNB-75 CNS is over 100 µM; in the assay on SR leukemia it was 78.5 µM; with SW-620 colon, over 100 µM; with UACC-257 melanoma it was over 100 µM.

Consider `CCCCCCCCCCCCCCCCNC(=O)C(=O)/C=C(\O)c1ccc(C)cc1`, for which the TGI with ACHN renal, with DU-145 prostate, in the assay with EKVX NSCLC, in the assay with M14 melanoma, in the assay with MOLT-4 leukemia and in the assay with NCI-H23 lung was over 10 µM throughout. Further, the TGI with NCI/ADR-RES ovarian, in the assay on OVCAR-8 ovarian, in the assay on SF-539 CNS, in the assay with SK-MEL-2 melanoma, in the assay on SK-OV-3 ovarian and with SN12C renal was over 10 µM throughout. The TGI with SNB-75 CNS, in the assay on SR leukemia, in the assay on SW-620 colon and with UACC-257 melanoma was over 10 µM each time.
